target: T1, enzyme ACAT-1 (Homo sapiens, UniProt P35610); test: HepG2 NBD-cholesterol fluorescence test of inhibitory activity towards ACAT-1 (SOAT-1); type: cell-based; details: HepG2 cells, NBD-cholesterol 1 μg/ml, incubation 6 hours at 37° C., fluorescence read (490/540 nm)
T1 construct: endogenous in cells; host or cells: HepG2
T1 sequence (P35610 1-550): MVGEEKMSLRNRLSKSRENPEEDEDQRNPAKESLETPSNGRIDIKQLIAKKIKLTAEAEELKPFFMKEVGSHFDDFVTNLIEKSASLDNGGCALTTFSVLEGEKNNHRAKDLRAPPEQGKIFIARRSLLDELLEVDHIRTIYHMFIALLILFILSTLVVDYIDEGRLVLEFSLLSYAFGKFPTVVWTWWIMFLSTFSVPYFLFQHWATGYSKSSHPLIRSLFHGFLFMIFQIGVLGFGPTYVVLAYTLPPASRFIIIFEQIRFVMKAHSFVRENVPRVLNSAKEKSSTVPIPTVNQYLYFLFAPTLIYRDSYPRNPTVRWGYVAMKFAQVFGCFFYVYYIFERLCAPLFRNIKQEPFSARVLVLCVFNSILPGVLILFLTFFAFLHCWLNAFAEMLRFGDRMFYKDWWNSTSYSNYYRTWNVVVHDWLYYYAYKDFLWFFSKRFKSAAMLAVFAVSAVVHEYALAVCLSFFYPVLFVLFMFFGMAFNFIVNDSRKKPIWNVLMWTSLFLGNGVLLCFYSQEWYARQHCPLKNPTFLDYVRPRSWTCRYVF
Description: The compounds (I) according to the invention, and also the pharmaceutically acceptable salts, solvates and/or hydrates thereof, have inhibitory properties on the enzyme SOAT-1. This inhibitory activity on the enzyme SOAT-1 is measured according to a HepG2 primary enzymatic test, as described in Example 23.
The compounds of formula (I) according to the invention were subjected to a test for evaluating their inhibitory activity towards the enzyme ACAT-1, inspired by the following publication: “Identification of ACAT1- and ACAT2-specific inhibitors using a novel, cell based fluorescence assay: individual ACAT uniqueness”, J. Lipid. Res. (2004) vol. 45, pages 378-386.
The principle of this test is based on the use of NBD-cholesterol, a cholesterol analogue whose fluorescence depends on its environment. When this molecule is in a polar environment, it is weakly fluorescent, whereas in a non-polar environment, it is strongly fluorescent. Free NBD-cholesterol becomes inserted in cell membranes and is weakly fluorescent in this polar environment. When NBD-cholesterol is esterified with ACAT, the NBD-cholesterol ester enters non-polar lipid droplets and is then strongly fluorescent.
The method below is applied: HepG2 cells are incubated in the presence of NBD-cholesterol (1 μg/ml) and of the test compound of formula (I) in black 96-well transparent-bottomed plates, at a rate of 30 000 cells per well. After incubation for 6 hours at 37° C. under 5% CO2, the medium is removed by turning upside-down and the cells are washed with twice 100 μl of PBS. After addition of 50 μl of lysis buffer (10 mM NaPO4, 1% Igepal), the plates are shaken for 5 minutes and the fluorescence is read (excitation at 490 nm, emission at 540 nm) on a Fusion machine (Perkin-Elmer).

SMILES | IC50 [nM]
CCC(NC(=O)CN1C(=O)N(c2ccc(C)cc2)C2(CCCCC2)C1=O)c1ccccc1 (stereo not shown) [Compound 4, 2-(2,4-dioxo-1-p-tolyl-1,3-diaza-spiro[4.5]dec-3-yl)-N-(1-phenyl-propyl)acetamide] | 50
CC[C@H](NC(=O)CN1C(=O)N(c2ccc(C)cc2)C2(CCCCC2)C1=O)c1ccccc1 [Compound 6, 2-(2,4-dioxo-1-p-tolyl-1,3-diaza-spiro[4.5]dec-3-yl)-N-((S)-1-phenylpropyl)-acetamide] | 36
Cc1ccc(N2C(=O)N(CC(=O)NC(c3ccccc3C)C(C)C)C(=O)C23CCCCC3)cc1 (stereo not shown) [Compound 9, 2-(2,4-dioxo-1-p-tolyl-1,3-diaza-spiro[4.5]dec-3-yl)-N-(2-methyl-1-o-tolylpropyl)-acetamide] | 100
CCC(NC(=O)CN1C(=O)N(c2ccc(C)cc2)C2(CCCCC2)C1=O)c1ccc(C)cc1 (stereo not shown) [Compound 13, 2-(2,4-dioxo-1-p-tolyl-1,3-diaza-spiro[4.5]dec-3-yl)-N-(1-p-tolyl-propyl)acetamide] | 60

The next molecules have a lower IC50 than those just listed; values first:

IC50 [nM] | SMILES
31 | CCCC(NC(=O)CN1C(=O)N(c2ccc(C)cc2)C2(CCCCC2)C1=O)c1ccccc1C (stereo not shown) [Compound 8, 2-(2,4-dioxo-1-p-tolyl-1,3-diaza-spiro[4.5]dec-3-yl)-N-(1-o-tolyl-butyl)acetamide]
9 | CCC(NC(=O)CN1C(=O)N(c2ccc(C)cc2)C2(CCCCC2)C1=O)c1cccc(C(F)(F)F)c1 (stereo not shown) [Compound 17, 2-(2,4-dioxo-1-p-tolyl-1,3-diaza-spiro[4.5]dec-3-yl)-N-[1-(3-trifluoromethyl-phenyl)propyl]-acetamide]
23 | Cc1ccc(N2C(=O)N(CC(=O)NC(c3ccccc3)C(C)C)C(=O)C23CCCCC3)cc1 (stereo not shown) [Compound 19, 2-(2,4-dioxo-1-p-tolyl-1,3-diaza-spiro[4.5]dec-3-yl)-N-(2-methyl-1-phenylpropyl)-acetamide]
